Measurements published in patent US8129423B2, “Imidazolone and imidazoloidinone derivatives as 11b-HSD1 inhibitors” (Hoffman-La Roche Inc., priority 2006, dated 2012).

Tests used:
11beta-HSD1 [1] = target: T1, 11beta-HSD1 (Homo sapiens, UniProt P28845); assay: Microsome assay: cortisone to cortisol conversion, ELISA-based cortisol detection; assay type: biochemical; design: made in house; host or cells: HEK293 cells (ATCC CRL-1573), transient transfection with lipofectamine; microsomal fraction; conditions: microsomes from HEK293 cells transiently expressing human 11beta-HSD1; cortisone 50-200 nM, NADPH 1 mM, 60 min, 37° C.; read-out: h 11-beta-HSD 1 IC50
T1 sequence (P28845 whole entry): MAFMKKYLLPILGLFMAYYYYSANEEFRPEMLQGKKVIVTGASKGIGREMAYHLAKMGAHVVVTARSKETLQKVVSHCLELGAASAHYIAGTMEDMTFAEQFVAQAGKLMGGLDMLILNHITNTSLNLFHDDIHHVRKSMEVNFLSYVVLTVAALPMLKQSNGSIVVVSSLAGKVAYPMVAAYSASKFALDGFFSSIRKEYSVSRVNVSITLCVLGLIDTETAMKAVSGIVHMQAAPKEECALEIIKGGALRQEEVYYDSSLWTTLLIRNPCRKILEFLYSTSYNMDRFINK
Protocol: The cDNA encoding the human 11beta-HSD1 protein was cloned into the expression vector pcDNA3 ([…]). This construct (for details see Alex Odermatt et al.; J Biol. Chem., 1999, Vol. 274, Issue 40, 28762-28770) was used to transiently express the protein in HEK293 cells (ATCC number: CRL-1573, described in Graham, F. L., Smiley, J., Russell, W. C., Nairn, R.; (1977)) using lipofectamine. 48 h after transfection cells were washed twice with ice-cold PBS (Phsophate buffered Saline). To 1 volume of cell suspension in PBS 2 volumes of ice-cold lysis buffer (50 mM Tris; pH7.5; 1 mM EDTA; 100 mM NaCl) were added. The cells were lysed by Potter-homogenization (20 strokes). The resulting homogenate was sonicated with a tip sonicator (10% output; 2×30 sec.) and cleared by a low speed centrifugation (10 min×9000 g; 4° C.). The microsomal fraction was collected by a high speed centrifugation (60 min×110,000 g). The resulting pellet was resuspended in storage buffer (20 mM Tris pH 7.5; 1 mM EDTA; 10% Glycerol) and the centrifugation was repeated. The resulting pellet containing the microsomal fraction was again taken up into storage buffer and aliquots were kept frozen in liquid Nitrogen until use.
Microsomes isolated from HEK293 cells transiently expressing human 11beta-HSD1 (for details see above) were incubated in assay buffer (100 mM NaCl; 1 mM EDTA; 1 mM EGTA; 1 mM MgCl; 250 mM Sucrose; 20 mM Tris pH 7.4; Cortisone 50-200 nM and NADPH 1 mM) together with different concentrations of test substances. After 60 min. of incubation at 37° C. the assay was stopped by heating to 80° C. (5 min.) and by addition of the inhibitor Carbenoxolone (1 uM). The amount of Cortisol produced in this assay was determined using a commercially available, ELISA-based Cortisol-detection kit (Distributed by Assay Design, Inc.). Inhibitors were characterized by their IC50 values, e.g. the concentration at which the production of cortisol was 50% reduced.

11beta-HSD1 [2] = target: T1, 11beta-HSD1; design: host or cells: in vivo treatment of human subjects; conditions: in man, treatment with carbenoxolone; cited from earlier work

IC50 (11beta-HSD1 [1])	Structure (SMILES)	insulin sensitivity (11beta-HSD1 [2])
39 nM	O=c1[nH]c(CC(F)(F)F)cn1C1C2CC3CC(C2)CC1C3 (stereo not shown) [Example 16, 1-Adamantan-2-yl-4-(2,2,2-trifluoro-ethyl)-1,3-dihydro-imidazol-2-one]	
192 nM	CC(C)Cc1cn(-c2ccccc2OC(F)(F)F)c(=O)n1CC1CC1 [Example 45, 3-Cyclopropylmethyl-4-isobutyl-1-(2-trifluoromethoxy-phenyl)-1,3-dihydro-imidazol-2-one]	
3 nM	CC1(C2CC2)CN(C2C3CC4CC2CC(O)(C4)C3)C(=O)N1C1CC1 (stereo not shown) [Example 80, 3,4-Dicyclopropyl-1-[(E)-5-hydroxy-adamantan-2-yl]-4-methyl-imidazolidin-2-one]	
	CC1(C)[C@@H](OC(=O)CCC(=O)O)CC[C@]2(C)[C@H]3C(=O)C=C4[C@@H]5C[C@@](C)(C(=O)O)CC[C@]5(C)CC[C@@]4(C)[C@]3(C)CC[C@@H]12 [carbenoxolone]	increase in insulin sensitivity
